# Assay results as given in PubChem BioAssay (NCI).
#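 Assay format: 96-well plates, 48-hour exposure. Definition used: TGI = concentration required for complete inhibition of growth.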
# Tests used:
# Test in all cases: DTP human tumour cell line panel, 48 h
# SK-MEL-28 melanoma = test system: SK-MEL-28 melanoma
# SNB-75 CNS = test system: SNB-75 CNS
# SF-268 CNS = test system: SF-268 CNS
# SN12C renal = test system: SN12C renal
# MALME-3M melanoma = test system: MALME-3M melanoma
# NCI-H226 lung = test system: NCI-H226 lung
# OVCAR-3 ovarian = test system: OVCAR-3 ovarian
# IGROV1 ovarian = test system: IGROV1 ovarian
# OVCAR-4 ovarian = test system: OVCAR-4 ovarian
# HOP-92 NSCLC = test system: HOP-92 NSCLC
# DMS 273 small cell lung = test system: DMS 273 small cell lung
# M19-MEL melanoma = test system: M19-MEL melanoma
# NCI-H522 lung = test system: NCI-H522 lung
# A549 NSCLC = test system: A549 NSCLC
# LXFL 529 NSCLC = test system: LXFL 529 NSCLC
# CAKI-1 renal = test system: CAKI-1 renal
# ACHN renal = test system: ACHN renal
# OVCAR-8 ovarian = test system: OVCAR-8 ovarian
# SF-539 CNS = test system: SF-539 CNS
# U251 CNS = test system: U251 CNS
# A498 renal = test system: A498 renal
# SNB-78 CNS = test system: SNB-78 CNS
# UACC-257 melanoma = test system: UACC-257 melanoma
# DLD-1 colon = test system: DLD-1 colon
# RPMI-8226 leukemia = test system: RPMI-8226 leukemia
# TK-10 renal = test system: TK-10 renal
# HT29 colon = test system: HT29 colon
# RXF-631 renal = test system: RXF-631 renal
# HOP-62 NSCLC = test system: HOP-62 NSCLC
# KM12 colon = test system: KM12 colon
# LOX IMVI melanoma = test system: LOX IMVI melanoma
# CCRF-CEM leukemia = test system: CCRF-CEM leukemia
# UO-31 renal = test system: UO-31 renal
# COLO 205 colon = test system: COLO 205 colon
# K-562 leukemia = test system: K-562 leukemia
# DMS 114 small cell lung = test system: DMS 114 small cell lung
# NCI-H460 lung = test system: NCI-H460 lung
# EKVX NSCLC = test system: EKVX NSCLC
# HCT-116 colon = test system: HCT-116 colon
# XF 498 CNS = test system: XF 498 CNS
# HL-60(TB) leukemia = test system: HL-60(TB) leukemia
# RXF 393 renal = test system: RXF 393 renal
# HOP-18 NSCLC = test system: HOP-18 NSCLC
# SF-295 CNS = test system: SF-295 CNS
# SNB-19 CNS = test system: SNB-19 CNS
# SW-620 colon = test system: SW-620 colon
# SK-MEL-5 melanoma = test system: SK-MEL-5 melanoma
# MOLT-4 leukemia = test system: MOLT-4 leukemia
# 786-0 renal = test system: 786-0 renal
# KM20L2 colon = test system: KM20L2 colon
# SR leukemia = test system: SR leukemia
# HCC-2998 colon = test system: HCC-2998 colon
# M14 melanoma = test system: M14 melanoma
# SK-OV-3 ovarian = test system: SK-OV-3 ovarian
# NCI-H23 lung = test system: NCI-H23 lung
# UACC-62 melanoma = test system: UACC-62 melanoma
# HCT-15 colon = test system: HCT-15 colon
# OVCAR-5 ovarian = test system: OVCAR-5 ovarian
# SK-MEL-2 melanoma = test system: SK-MEL-2 melanoma
smiles,measurement,setting,value
NC(N)=NS(=O)(=O)c1ccc(NC(=O)c2cccn3c(=O)c4ccccc4nc23)cc1,TGI,SK-MEL-28 melanoma,> 100 µM
same,TGI,SNB-75 CNS,> 100 µM
same,TGI,SF-268 CNS,> 100 µM
same,TGI,SN12C renal,> 100 µM
same,TGI,MALME-3M melanoma,> 100 µM
same,TGI,NCI-H226 lung,> 100 µM
same,TGI,OVCAR-3 ovarian,> 100 µM
same,TGI,IGROV1 ovarian,> 100 µM
same,TGI,OVCAR-4 ovarian,> 100 µM
same,TGI,HOP-92 NSCLC,> 100 µM
same,TGI,DMS 273 small cell lung,> 100 µM
same,TGI,M19-MEL melanoma,> 100 µM
same,TGI,NCI-H522 lung,> 100 µM
same,TGI,A549 NSCLC,> 100 µM
same,TGI,LXFL 529 NSCLC,> 100 µM
same,TGI,CAKI-1 renal,> 100 µM
same,TGI,ACHN renal,> 100 µM
same,TGI,OVCAR-8 ovarian,> 100 µM
same,TGI,SF-539 CNS,> 100 µM
same,TGI,U251 CNS,> 100 µM
same,TGI,A498 renal,> 100 µM
same,TGI,SNB-78 CNS,> 100 µM
same,TGI,UACC-257 melanoma,58.7 µM
same,TGI,DLD-1 colon,> 100 µM
same,TGI,RPMI-8226 leukemia,65.1 µM
same,TGI,TK-10 renal,> 100 µM
same,TGI,HT29 colon,> 100 µM
same,TGI,RXF-631 renal,> 100 µM
same,TGI,HOP-62 NSCLC,> 100 µM
same,TGI,KM12 colon,36 µM
same,TGI,LOX IMVI melanoma,> 100 µM
same,TGI,CCRF-CEM leukemia,88 µM
same,TGI,UO-31 renal,> 100 µM
same,TGI,COLO 205 colon,34 µM
same,TGI,K-562 leukemia,90.1 µM
same,TGI,DMS 114 small cell lung,> 100 µM
same,TGI,NCI-H460 lung,> 100 µM
same,TGI,EKVX NSCLC,> 100 µM
same,TGI,HCT-116 colon,> 100 µM
same,TGI,XF 498 CNS,76.8 µM
same,TGI,HL-60(TB) leukemia,44.9 µM
same,TGI,RXF 393 renal,> 100 µM
same,TGI,HOP-18 NSCLC,> 100 µM
same,TGI,SF-295 CNS,> 100 µM
same,TGI,SNB-19 CNS,> 100 µM
same,TGI,SW-620 colon,> 100 µM
same,TGI,SK-MEL-5 melanoma,> 100 µM
same,TGI,MOLT-4 leukemia,85.9 µM
same,TGI,786-0 renal,> 100 µM
same,TGI,KM20L2 colon,63.7 µM
same,TGI,SR leukemia,84.3 µM
same,TGI,HCC-2998 colon,> 100 µM
same,TGI,M14 melanoma,> 100 µM
same,TGI,SK-OV-3 ovarian,> 100 µM
same,TGI,NCI-H23 lung,> 100 µM
same,TGI,UACC-62 melanoma,> 100 µM
NC(CCCNc1ccc(O)cc1)C(=O)O (stereo not given),TGI,SK-MEL-28 melanoma,> 100 µM
same,TGI,SNB-75 CNS,> 100 µM
same,TGI,SF-268 CNS,> 62.6 µM
same,TGI,SN12C renal,> 70.6 µM
same,TGI,MALME-3M melanoma,> 100 µM
same,TGI,NCI-H226 lung,> 100 µM
same,TGI,OVCAR-3 ovarian,35 µM
same,TGI,IGROV1 ovarian,61.5 µM
same,TGI,OVCAR-4 ovarian,31.7 µM
same,TGI,HOP-92 NSCLC,63.3 µM
same,TGI,DMS 273 small cell lung,> 100 µM
same,TGI,M19-MEL melanoma,32.7 µM
same,TGI,NCI-H522 lung,> 100 µM
same,TGI,A549 NSCLC,> 100 µM
same,TGI,LXFL 529 NSCLC,33.3 µM
same,TGI,CAKI-1 renal,> 100 µM
same,TGI,ACHN renal,> 57.4 µM
same,TGI,OVCAR-8 ovarian,> 62.2 µM
same,TGI,SF-539 CNS,83.5 µM
same,TGI,U251 CNS,> 100 µM
same,TGI,A498 renal,> 73.1 µM
same,TGI,HCT-15 colon,> 60.7 µM
same,TGI,OVCAR-5 ovarian,> 100 µM
same,TGI,SNB-78 CNS,> 100 µM
same,TGI,UACC-257 melanoma,> 70.5 µM
same,TGI,DLD-1 colon,42.6 µM
same,TGI,RPMI-8226 leukemia,54.8 µM
same,TGI,TK-10 renal,97.7 µM
same,TGI,HT29 colon,> 100 µM
same,TGI,RXF-631 renal,> 100 µM
same,TGI,HOP-62 NSCLC,> 100 µM
same,TGI,KM12 colon,> 100 µM
same,TGI,LOX IMVI melanoma,33.3 µM
same,TGI,CCRF-CEM leukemia,> 71.1 µM
same,TGI,UO-31 renal,> 100 µM
same,TGI,SK-MEL-2 melanoma,> 66.8 µM
same,TGI,COLO 205 colon,> 90.3 µM
same,TGI,K-562 leukemia,> 72.1 µM
same,TGI,DMS 114 small cell lung,54.1 µM
same,TGI,NCI-H460 lung,> 100 µM
same,TGI,EKVX NSCLC,> 88.8 µM
same,TGI,HCT-116 colon,32.1 µM
same,TGI,XF 498 CNS,38.2 µM
same,TGI,HL-60(TB) leukemia,58.3 µM
same,TGI,RXF 393 renal,63.6 µM
same,TGI,HOP-18 NSCLC,> 100 µM
same,TGI,SF-295 CNS,> 100 µM
same,TGI,SNB-19 CNS,> 100 µM
same,TGI,SW-620 colon,42.7 µM
same,TGI,SK-MEL-5 melanoma,63.8 µM
same,TGI,MOLT-4 leukemia,56.9 µM
same,TGI,786-0 renal,31.5 µM
same,TGI,KM20L2 colon,> 100 µM
same,TGI,SR leukemia,55.8 µM
same,TGI,HCC-2998 colon,> 100 µM
same,TGI,M14 melanoma,> 66.9 µM
same,TGI,SK-OV-3 ovarian,> 100 µM
same,TGI,NCI-H23 lung,> 100 µM
same,TGI,UACC-62 melanoma,38.2 µM
